Experimental data as given in US7935815B2, “Imidazoyl pyridine compounds and salts thereof” (Eisai R&D Management Co., Ltd., priority 2007, dated 2011).
Read-outs that look alike come from different tables or passages of the source.

Test system: Aβ42 production
Experiment: Quantification of Aβ peptide in culture of neurons from rat fetus brain (Aβ ELISA)
Assay type: cell-based
Settings: rat primary neuronal culture (embryonic day 18 Wistar rat cerebral cortex), cultured three days after addition of compound, Aβx-42 ELISA of the medium, read-out: Aβ42 production reducing effect IC50
Summary of the method: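 Primary cortical neurons from E18 Wistar rat embryos were cultured 4 days on poly-lysine, then treated with compound in Neurobasal/B27 without 2-mercaptoethanol (final DMSO ≤1%) for 3 days. Conditioned medium was assayed undiluted by ELISA for Aβx-42, against DMSO-only controls.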

[1] = Rattus norvegicus, Neuron, 72 h

Compound	IC50 [1] [nM]	IC50 [nM]
COc1cc(/C=C/c2nc3n(n2)CC[C@H](O)[C@@H]3c2cc(F)c(F)c(F)c2)ccc1-n1cnc(C)c1 [Example 106, (7S,8R)-2-{(E)-2-[3-methoxy-4-(4-methyl-1H-imidazol-1-yl)phenyl]vinyl}-8-(3,4,5-trifluorophenyl)-5,6,7,8-tetrahydro-[1,2,4]triazolo[1,5-a]pyridin-7-ol]	39	
COc1cc(/C=C/c2nc3n(n2)C[C@@H](O)C[C@@H]3c2cc(F)c(F)c(F)c2)ccc1-n1cnc(C)c1 [Example 108, (6S,8R)-2-{(E)-2-[3-methoxy-4-(4-methyl-1H-imidazol-1-yl)phenyl]vinyl}-8-(3,4,5-trifluorophenyl)-5,6,7,8-tetrahydro-[1,2,4]triazolo[1,5-a]pyridin-6-ol]	29	
COc1cc(/C=C/c2nc3n(n2)C[C@H](O)C[C@@H]3c2cc(F)c(F)c(F)c2)ccc1-n1cnc(C)c1 [Example 110, (6R,8R)-2-{(E)-2-[3-methoxy-4-(4-methyl-1H-imidazol-1-yl)phenyl]vinyl}-8-(3,4,5-trifluorophenyl)-5,6,7,8-tetrahydro-[1,2,4]triazolo[1,5-a]pyridin-6-ol]	33	
COc1cc(/C=C/c2nc3n(n2)CCCCN3c2ccc(F)cc2)ccc1-n1cnc(C)c1 [Example 165, 8-(4-fluorophenyl)-2-{(E)-2-[3-methoxy-4-(4-methyl-1H-imidazol-1-yl)phenyl]vinyl}-5,6,7,8-tetrahydro-4H-1,3,3a,8-tetraazaazulene]	115	
COc1nc(/C=C/c2nc3n(n2)CCCN3c2ccc(Cl)cc2)ccc1-n1cnc(C)c1 [Example 232, 4-(4-chlorophenyl)-2-{(E)-2-[6-methoxy-5-(4-methyl-1H-imidazol-1-yl)pyridin-2-yl]vinyl}-4,5,6,7-tetrahydro-[1,2,4]triazolo[1,5-a]pyrimidine]	33	
COc1nc(/C=C/c2nc3n(n2)CCCN3c2ccccc2)ccc1-n1cnc(C)c1 [Example 233, 2-{(E)-2-[6-methoxy-5-(4-methyl-1H-imidazol-1-yl)pyridin-2-yl]vinyl}-4-phenyl-4,5,6,7-tetrahydro-[1,2,4]triazolo[1,5-a]pyrimidine]	42	
COc1nc(/C=C/c2nc3n(n2)CC[C@H](C)N3c2ccc(F)cc2)ccc1-n1cnc(C)c1 [Example 236, (S)-4-(4-fluorophenyl)-2-{(E)-2-[6-methoxy-5-(4-methyl-1H-imidazol-1-yl)pyridin-2-yl]vinyl}-5-methyl-4,5,6,7-tetrahydro-[1,2,4]triazolo[1,5-a]pyrimidine]	39	
COc1nc(/C=C/c2nc3n(n2)CCC[C@H]3c2ccc(F)c(F)c2F)ccc1-n1cnc(C)c1 [Example 339, (S)-2-{(E)-3-[6-methoxy-5-(4-methyl-1H-imidazol-1-yl)pyridin-2-yl]vinyl}-8-(2,3,4-trifluorophenyl)-5,6,7,8-tetrahydro-[1,2,4]triazole[1,5-a]pyridine]		21
COc1nc(/C=C/c2nc3n(n2)C(C)CCC3c2ccccc2C(F)(F)F)ccc1-n1cnc(C)c1 (stereo not shown) [Example 361, 2-{(E)-2-[6-methoxy-5-(4-methyl-1H-imidazol-1-yl)pyridin-2-yl]vinyl}-5-methyl-8-(2-trifluoromethylphenyl)-5,6,7,8-tetrahydro-[1,2,4]triazolo[1,5-a]pyridine]	12	
COc1nc(/C=C/c2nc3n(n2)C(C)CCC3c2ccccc2C(F)(F)F)ccc1-n1cnc(C)c1 (stereo not shown) [Example 362, 2-{(E)-2-[6-methoxy-5-(4-methyl-1H-imidazol-1-yl)pyridin-2-yl]vinyl}-5-methyl-8-(2-trifluoromethylphenyl)-5,6,7,8-tetrahydro-[1,2,4]triazolo[1,5-a]pyridine]		9
COc1nc(/C=C/c2nc3n(n2)CCCC3c2cc(F)cc(F)c2)ccc1-n1cnc(C)c1 (stereo not shown) [Example 365, 8-(3,5-difluorophenyl)-2-{(E)-2-[6-methoxy-5-(4-methyl-1H-imidazol-1-yl)pyridin-2-yl]vinyl}-5,6,7,8-tetrahydro-[1,2,4]triazolo[1,5-a]pyridine]		21
COc1nc(/C=C/c2nc3n(n2)CCOC3c2ccccc2C(F)(F)F)ccc1-n1cnc(C)c1 (stereo not shown) [Example 368, 2-{(E)-2-[6-methoxy-5-(4-methyl-1H-imidazol-1-yl)pyridin-2-yl]vinyl}-8-(2-trifluoromethylphenyl)-5,6-dihydro-8H-[1,2,4]triazolo[5,1-c][1,4]oxazine]	25	
COc1nc(/C=C/c2nc3n(n2)CCC(C)N3c2ccc(F)cc2F)ccc1-n1cnc(C)c1 (stereo not shown) [Example 371, 4-(2,4-difluorophenyl)-2-{(E)-2-[6-methoxy-5-(4-methyl-1H-imidazol-1-yl)pyridin-2-yl]vinyl}-5-methyl-4,5,6,7-tetrahydro-[1,2,4]triazolo[1,5-a]pyrimidine]	27	
COc1nc(/C=C/c2nc3n(n2)CCC(C)N3c2ccccc2C(F)(F)F)ccc1-n1cnc(C)c1 (stereo not shown) [Example 373, 2-{(E)-2-[6-methoxy-5-(4-methyl-1H-imidazol-1-yl)pyridin-2-yl]vinyl}-5-methyl-4-(2-trifluoromethylphenyl)-4,5,6,7-tetrahydro-[1,2,4]triazolo[1,5-a]pyrimidine]	29	
COc1nc(/C=C/c2nc3n(n2)CCC3c2ccccc2)ccc1-n1cnc(C)c1 (stereo not shown) [Example 376, 2-{(E)-2-[6-methoxy-5-(4-methyl-1H-imidazol-1-yl)pyridin-2-yl]vinyl}-7-phenyl-6,7-dihydro-5H-pyrrolo[1,2-b][1,2,4]triazole]	28	
COc1nc(/C=C/c2nc3n(n2)CCC3c2ccc(F)c(F)c2)ccc1-n1cnc(C)c1 (stereo not shown) [Example 380, 7-(3,4-difluorophenyl)-2-{(E)-2-[6-methoxy-5-(4-methyl-1H-imidazol-1-yl)pyridin-2-yl]vinyl}-6,7-dihydro-5H-pyrrolo[1,2-b][1,2,4]triazole]	29	
COc1nc(/C=C/c2nc3n(n2)CCC3c2cc(F)cc(F)c2)ccc1-n1cnc(C)c1 (stereo not shown) [Example 384, 7-(3,5-difluorophenyl)-2-{(E)-2-[6-methoxy-5-(4-methyl-1H-imidazol-1-yl)pyridin-2-yl]vinyl}-6,7-dihydro-5H-pyrrolo[1,2-b][1,2,4]triazole]	36	
COc1nc(/C=C/c2nc3n(n2)CCC3c2ccccc2C(F)(F)F)ccc1-n1cnc(C)c1 (stereo not shown) [Example 390, 2-{(E)-2-[6-methoxy-5-(4-methyl-1H-imidazol-1-yl)pyridin-2-yl]vinyl}-7-(2-trifluoromethylphenyl)-6,7-dihydro-5H-pyrrolo[1,2-b][1,2,4]triazole]	26	
COc1nc(/C=C/c2nc3n(n2)CCC3c2cc(F)ccc2C(F)(F)F)ccc1-n1cnc(C)c1 (stereo not shown) [Example 392, 7-(5-fluoro-2-trifluoromethylphenyl)-2-{(E)-2-[6-methoxy-5-(4-methyl-1H-imidazol-1-yl)pyridin-2-yl]vinyl}-6,7-dihydro-5H-pyrrolo[1,2-b][1,2,4]triazole]	22	
